According to the NIST ThermoML archive (doi:10.1016/j.jct.2010.05.009):

Tests used:
[1] = 101 kPa, Liquid; for viscosity: Capillary tube (Ostwald / Ubbelohde) method; for mass density: Vibrating tube method
[2] = refractive index (Na D-line) (dimensionless); conditions: 101.33 kPa, Liquid, Standard Abbe refractometry
[3] = xn = mol fraction of the nth substance listed; conditions: 101 kPa, Liquid; for viscosity: Capillary tube (Ostwald / Ubbelohde) method; for mass density: Vibrating tube method
[4] = refractive index (Na D-line) (dimensionless); xn = mol fraction of the nth substance listed; conditions: 101 kPa, Liquid, Standard Abbe refractometry

CCC(C)(C)O [2-methylbutan-2-ol]
Conditions	mass density, 288.15 K [kg/m3]	mass density, 298.15 K [kg/m3]	mass density, 308.15 K [kg/m3]	refractive index, 288.15 K	refractive index, 298.15 K	refractive index, 308.15 K	viscosity, 288.15 K [mPa·s]	viscosity, 298.15 K [mPa·s]	viscosity, 308.15 K [mPa·s]
[1]	814.01	804.88	795.52	–	–	–	5.867	3.478	2.504
[2]	–	–	–	1.4062	1.4015	1.3968	–	–	–

CCC(C)(C)O [2-methylbutan-2-ol] + CCCN
x1 = 1
Conditions	mass density, 288.15 K [kg/m3]	mass density, 298.15 K [kg/m3]	mass density, 308.15 K [kg/m3]	refractive index, 288.15 K	refractive index, 298.15 K	refractive index, 308.15 K	viscosity, 288.15 K [mPa·s]	viscosity, 298.15 K [mPa·s]	viscosity, 308.15 K [mPa·s]
[3]	814.01	804.88	795.52	–	–	–	5.867	3.478	2.504
[4]	–	–	–	1.4062	1.4015	1.3968	–	–	–

CCCN [propan-1-amine]
Conditions	mass density, 288.15 K [kg/m3]	mass density, 298.15 K [kg/m3]	mass density, 308.15 K [kg/m3]	refractive index, 288.15 K	refractive index, 298.15 K	refractive index, 308.15 K	viscosity, 288.15 K [mPa·s]	viscosity, 298.15 K [mPa·s]	viscosity, 308.15 K [mPa·s]
[1]	721.57	711.08	700.4	–	–	–	0.3851	0.3585	0.3222
[2]	–	–	–	1.3899	1.3844	1.3784	–	–	–

C1CCOC1 [tetrahydrofuran]
Conditions	mass density, 288.15 K [kg/m3]	mass density, 298.15 K [kg/m3]	mass density, 308.15 K [kg/m3]	refractive index, 288.15 K	refractive index, 298.15 K	refractive index, 308.15 K	viscosity, 288.15 K [mPa·s]	viscosity, 298.15 K [mPa·s]	viscosity, 308.15 K [mPa·s]
[1]	892.92	882.03	871.01	–	–	–	0.4991	0.454	0.4172
[2]	–	–	–	1.4086	1.4037	1.3987	–	–	–

C1CCOC1 [tetrahydrofuran] + CCC(C)(C)O
x2 = 0
Conditions	mass density, 288.15 K [kg/m3]	mass density, 298.15 K [kg/m3]	mass density, 308.15 K [kg/m3]	refractive index, 288.15 K	refractive index, 298.15 K	refractive index, 308.15 K	viscosity, 288.15 K [mPa·s]	viscosity, 298.15 K [mPa·s]	viscosity, 308.15 K [mPa·s]
[3]	892.92	882.03	871.01	–	–	–	0.4991	0.454	0.4172
[4]	–	–	–	1.4086	1.4037	1.3987	–	–	–

C1CCOC1 [tetrahydrofuran] + CCCN
x1 = 1
Conditions	mass density, 288.15 K [kg/m3]	mass density, 298.15 K [kg/m3]	mass density, 308.15 K [kg/m3]	refractive index, 288.15 K	refractive index, 298.15 K	refractive index, 308.15 K	viscosity, 288.15 K [mPa·s]	viscosity, 298.15 K [mPa·s]	viscosity, 308.15 K [mPa·s]
[3]	892.92	882.03	871.01	–	–	–	0.4991	0.454	0.4172
[4]	–	–	–	1.4086	1.4037	1.3987	–	–	–
